# From article PMC7062870 (Experimental & Molecular Medicine, 2020)
# Molecular target: T1, fascin1 (Homo sapiens, UniProt Q16658)
# T1 construct: gene FSCN1; commercial purified fascin1 (Hypermol)
# Experiment: F-actin bundling, low-speed cosedimentation
# Format: biochemical
# Conditions: 1 µM fascin1; 10 µM F-actin
structure (smiles),measurement,value
CN(C)CCCN1c2ccccc2CCc2ccccc21 [imipramine],"F-actin bundling, low-speed cosedimentation","upon imipramine addition, the F-actin pellet fraction significantly diminished in favor of the supernatant"
